Results as given in US9782411B2, “{4-[5-(3-chloro-phenoxy)-oxazolo[5,4-d]pyrimidin-2-yl]-2,6-dimethyl-phenoxy}-acetic acid for use in the prevention or treatment of acute kidney injury” (Sanofi, priority 2013, dated 2017).
“And” between values parts separate entries of the source, which are not always exact repeats. Identical values can stand only once.

Key:
[1] = test system: ICAM-I, VCAM-I, and P/E selectins; experiment: TNFα-induced over-expression of adhesion molecules assay; format: cell-based; conditions: three human endothelial cell types (HPAEC, HUVEC and HRGEC)
Experimental: ICAM-1, VCAM-1 and P/E-selectins expression were measured in HUVEC by ELISA. HUVEC cells were seeded in 96 multiwell plates at 25×10^3 cells per well under the volume of 100 μL in EGM2 medium (Lonza) and allowed to adhere for 24 h. After 24 h, complete medium was replaced by quiescent medium (EGM2 without supplements and serum) for 3 hours. Following this, cells were pre-treated with compound A or BAF-312 (1-30 μM) for 18 h. Cells were then treated with TNF-α (3 ng/mL) in growth-factors free medium for an additional 6 h period. Medium was removed and cells were washed and fixed with 100 μL RLC2 solution per well (Alphelys #01-RLC2-RTU30) for 20 min at 4° C. Fixed cells were washed twice with 100 μL HBSS before addition of antibodies anti-ICAM-1 (#BBA3, R&D System), anti-VCAM-1 (#BBA5, R&D System) and anti-P/E-Selectins (#BBA1, R&D system) for 1 hour. Following extensive wash, anti-mouse IgG HRP (#NA931, Amersham) was added for 2 hours. Optical density was read at 450 nm (Envision) after washing and addition of HRP substrate (OPD, Sigma #P9187). Results are expressed as percent inhibition of TNF-α-induced adhesion molecule expression.

[2] = molecular target: S1P2 (Homo sapiens, UniProt O95136); experiment: PathHunter β-arrestin assay, S1P2; format: cell-based; conditions: 0.5% FBS
Sequence of S1P2 (O95136 whole entry): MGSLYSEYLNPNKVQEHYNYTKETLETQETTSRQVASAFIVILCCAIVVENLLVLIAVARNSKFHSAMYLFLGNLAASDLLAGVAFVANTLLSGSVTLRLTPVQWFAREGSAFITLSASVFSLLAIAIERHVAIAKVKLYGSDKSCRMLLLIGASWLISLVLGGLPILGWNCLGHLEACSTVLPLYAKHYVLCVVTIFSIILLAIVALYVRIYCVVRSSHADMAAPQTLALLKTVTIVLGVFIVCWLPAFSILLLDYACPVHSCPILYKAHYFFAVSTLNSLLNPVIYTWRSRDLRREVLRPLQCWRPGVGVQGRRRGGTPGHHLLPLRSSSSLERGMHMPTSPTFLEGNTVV
Experimental: (§1) The PathHunter® β-Arrestin Assay from DiscoverX was used to determine the EC50 activity of compound A, BAF-312 and fingolimod on S1P1, S1P2, S1P3, S1P4 or S1P5 receptors. The compounds were tested in assay medium containing 0.5% FBS.

[3] = molecular target: T1, S1P1 (Homo sapiens, UniProt P21453); experiment: cAMP HTRF assay in forskolin-treated HUVEC; format: cell-based; design: host or cells: HUVEC (primary); conditions: 0.1% BSA
T1 sequence (P21453 whole entry): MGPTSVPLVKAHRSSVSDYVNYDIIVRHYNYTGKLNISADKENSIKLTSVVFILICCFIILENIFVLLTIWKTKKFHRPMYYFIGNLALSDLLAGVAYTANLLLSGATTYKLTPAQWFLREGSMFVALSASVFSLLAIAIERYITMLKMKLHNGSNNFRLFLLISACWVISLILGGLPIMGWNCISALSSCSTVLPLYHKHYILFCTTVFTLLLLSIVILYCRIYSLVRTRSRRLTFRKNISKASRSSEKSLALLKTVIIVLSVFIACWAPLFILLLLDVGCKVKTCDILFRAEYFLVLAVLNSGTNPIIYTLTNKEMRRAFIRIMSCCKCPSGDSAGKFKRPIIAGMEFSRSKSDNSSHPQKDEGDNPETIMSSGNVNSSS
Experimental: Briefly, HUVEC (Lonza) were seeded at 5×10^3 cells per well into a white 96 multiwell plate (half volume) for 24 hours in EGM2 medium (Lonza). At the beginning of the experiment, EGM2 medium was replaced by assay buffer consisting in HBSS containing Hepes (10 mM), BSA (0.1%) and IBMX (0.5 mM). Cells were allowed to recover during 15 min. […] After 45 min of FSK treatment, reaction was stopped by addition of MAb anti-cAMP-cryptate and cAMP-D2 for 1 hour. At the end of the incubation, fluorescence was read (Envision, Perkin Elmer) and FRET ratio calculated according to assay kit protocol.

[4] = molecular target: T2, S1P4 (Homo sapiens, UniProt O95977); experiment: PathHunter β-arrestin assay, S1P4; format: cell-based; conditions: 0.5% FBS
T2 sequence (O95977 1-384): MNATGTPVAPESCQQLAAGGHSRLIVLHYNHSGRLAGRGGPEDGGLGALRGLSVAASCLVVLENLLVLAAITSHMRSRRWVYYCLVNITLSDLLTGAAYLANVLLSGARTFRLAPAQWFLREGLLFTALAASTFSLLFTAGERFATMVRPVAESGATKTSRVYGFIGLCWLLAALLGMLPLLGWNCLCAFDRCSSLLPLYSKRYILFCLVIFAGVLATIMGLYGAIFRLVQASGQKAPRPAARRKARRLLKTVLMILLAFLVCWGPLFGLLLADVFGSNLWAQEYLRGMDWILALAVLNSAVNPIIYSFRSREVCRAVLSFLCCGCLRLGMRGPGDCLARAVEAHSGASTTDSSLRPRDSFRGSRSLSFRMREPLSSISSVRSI
Experimental: as §1

[5] = molecular target: T1, S1P1; experiment: PathHunter β-arrestin assay, CHO; format: cell-based; design: host or cells: CHO (PathHunter); conditions: 0.5% FBS
Experimental: The compounds were tested in assay medium containing 0.5% FBS.

[6] = test system: Fischer rats; experiment: Rat model of renal ischemia reperfusion (I/R) injury; format: in vivo; conditions: for AKI protection (FIG. 3-D): Fischer rats, compound A at 3 mg/kg
Experimental: Male Fischer rats (n=3-9, 250 to 300 g) (Charles River Laboratory, France) received oral administration of compound A at 0.3, 1 and 3 mg/kg or BAF-312 at 3, 10 and 30 mg/kg or vehicle article (methylcellulose 0.6%—tween 80 0.5% in water) within a volume of administration of 2 mL/kg, one hour before renal ischemia. In a second set of experiment, compound A was administrated b.i.d. during 5 days to assess potential tachyphylaxia. Briefly, animals were subjected to sham surgery (i.e. laparotomy, renal arteries isolation) or to 25 min bilateral renal artery occlusion under pentobarbital (50 mg/kg i.p.) anaesthesia. Body temperature (37° C.-38° C.) and hydration (peritoneal injection of physiological serum) were carefully monitored to standardize the surgery procedure and limit inter-individual variability. At the end of the ischemic period, kidneys were reperfused by removing clamps, and the quality of reperfusion was controlled before suturing muscular and cutaneous plan (animals with poor reperfusion were excluded immediately). Twenty-four hours later, blood and kidneys were collected. Blood was centrifuged (3000 g, 10 min) and heparinised plasma frozen for creatinine evaluation using a biochemical analyser (P400, Horiba, France). One kidney was frozen for western blot analyses for tissue albumin (anti-albumin, Santa Cruz) and tissue HSP70 (monoclonal anti-HSP70 antibody from Santa Cruz #SC32239) evaluation and the second one fixed (10% neutral-buffered formalin) and paraffin-embedded for histological analyses on 5 μm-thick slice (acute tubular necrosis quantification using classical hematoxylin-erythrosin-Saffran, modified Masson's trichrome and periodic acid-Schiff associated blue alcine) and immunohistochemistry analyses (macrophage staining with monoclonal anti-CD68 antibody from Acris #BM4000, and capillary staining with monoclonal ant-PECAM antibody from Santa Cruz #SC1506, using Ventana robot, VMS Inc.). […] CD68 and PECAM immunolabeling are expressed as percentage of positive pixel count (Aperio algorithm) on whole section. Plasma creatinine is expressed as mean+/−s.e.m.

[7] = molecular target: T1, S1P1; experiment: Hit Hunter cAMP assay, CHO; format: cell-based; design: host or cells: CHO (PathHunter); conditions: 0.5% FBS
Experimental: The Hit Hunter® cAMP Assay from DiscoverX was used to determine the EC50 activity of compound A, BAF-312 and fingolimod on S1P1. The compounds were tested in assay medium containing 0.5% FBS.

[8] = molecular target: T3, hS1P1-G-fusion (Homo sapiens, UniProt P21453); experiment: Calcium mobilization (FlipR) assay in CHO cells; format: cell-based; conditions: CHO over-expressing human S1P1 (G-fusion); 0% proteins in assay media
T3 construct: fused on or other part: Modified G-protein alpha subunit (G alpha i4qi4) fused to the receptor's C-terminus to force coupling to calcium release
T3 sequence (P21453 whole entry, the tested form may be a part): as the sequence (P21453 whole entry) above
Experimental: The activation of the S1P1 receptor by the compounds was quantified by their effect on S1P1 receptor-related calcium liberation in a cell-based calcium fluorescence assay by use of CHO cells in which the human S1P1 receptor was stably overexpressed (Flp-In system, Invitrogen). […] Changes in intracellular calcium were determined by fluorescence measurement with the calcium-sensitive dye fluo-4 (Invitrogen) in a fluorescence imaging plate reader (FlipR, Molecular Dynamics).
CHO cells stably overexpressing the human S1P1 receptor were seeded (40.000 per well) in black clear-bottomed poly-D-lysine-coated 96 well plates (Becton Dickinson, Biocoat cellware) approximately 18-24 h prior to the experiments. […]
Prior to the FlipR experiment, cells were loaded with fluo-4 acetoxymethyl ester (fluo-4 AM, Invitrogen, #F14202) for 60 min in an incubator at 37° C., 5% carbon dioxide and 95% humidity in dye-loading buffer consisting of Hanks' Balanced Salt Solution (HBSS; Invitrogen #14065049) supplemented with fluo-4 AM at 2 μM (all data given for final concentration), Pluronic® F-127 0.05% (vol/vol) (Invitrogen, #P-3000MP), HEPES 20 mM (Gibco #15630), probenecid 2.5 mM (Sigma #P-8761) and bovine serum albumin (BSA) 0.05% (Sigma # A-6003), adjusted to pH 7.5 with sodium hydroxide. […] This latter buffer was also used as the buffer in the subsequent cell fluorescence measurements.
The dye-loaded and washed cells were then stimulated with respective compounds with various concentrations added as a solution in DMSO (0.3% vol/vol maximum final concentration of DMSO), or with S1P (100 nM final concentration) in DMSO in the respective concentration only (positive control). Compounds which activated the S1P receptor lead to liberation of intracellular calcium from internal stores resulting in a large transient increase of the fluo-4 fluorescence signal which was monitored over approximately 3 min. The percent activation caused by a test compound was determined from the maximum fluorescence response as compared to the maximum fluorescence response to the S1P positive control. […]

[9] = single experiments (footnote), read-out: EC50, β-arrestin assay, values of the 2 separate experiments
[10] = starred values are means of 2 separate experiments, read-out: EC50, β-arrestin, CHO

Row | EC50 [2] | EC50 [3] | EC50 [4] | EC50 [5, 9] | EC50 [5, 10] | EC50 [7] | EC50 [8] | Compound | TNFα-induced over-expression of adhesion molecules [1] | AKI protection (FIG. 3-D) [6] | Reduction in serum creatinine ([6]; doses up to 30 mg/kg p.o.) | Albumin extravasation (cortical albumin, western blot) ([6]; 3 mg/kg p.o.) | Tachyphylaxis ([6]; 3 mg/kg p.o. BID for 5 days vs single administration) | Effect on serum creatinine, dose dependence and significance ([6]; 1 and 3 mg/kg p.o.) | Reduction of severity of AKI (limiting the rise of serum creatinine) ([6]; p.o. 1 hour before occlusion, 24 h reperfusion) | Capillaries (histological analysis) ([6]; rat, in vivo) | Macrophages infiltration ([6]; rat, in vivo) | Renal HSP70 protein ([6]; rat, in vivo) | Renal proximal tubule necrosis ([6]; rat, in vivo)
1 | > 10000 nM | 74 nM | 2100 nM | 7.9 nM and 2.83 nM | 5.4 nM | 0.47 nM | 2.8 nM | CCc1cc(/C(C)=N/OCc2ccc(C3CCCCC3)c(C(F)(F)F)c2)ccc1CN1CC(C(=O)O)C1 [BAF-312] | unlike BAF-312, reduced TNFα-induced over-expression | partial AKI protection | ≤ 40% |  |  |  |  |  |  |  | 
2 | > 10000 nM | 15600 nM | 2500 nM | 800 nM and 511 nM | 656 nM | 22.6 nM | 31 nM | Cc1cc(-c2nc3cnc(Oc4cccc(Cl)c4)nc3o2)cc(C)c1OCC(=O)O [Compound A, {4-[5-(3-chloro-phenoxy)-oxazolo[5,4-d]pyrimidin-2-yl]-2,6-dimethyl-phenoxy}-acetic acid] | reduced TNFα-induced over-expression of adhesion molecules | full AKI protection |  | preventing albumin extravasation | no sign of tachyphylaxis | dose-dependent and statistically significant | 85-90% | preserving capillaries | reduced macrophages infiltration | increased renal HSP70 protein | protected renal proximal tubules from necrosis
